# Measured values reported in patent publication US20240368156A1, “2-AZABICYCLO[2.2.1]HEPTANE KRAS INHIBITORS” (INCYTE CORPORATION, priority 2023, published 2024).
# Columns and labels:
# KRAS G12V = KRAS G12V (Homo sapiens, UniProt P01116, G12V); experiment: GDP-GTP exchange assay (bodipy-GDP/GppNHp, SOS1), KRAS G12V; format: biochemical; conditions: 2.5 nM bodipy-loaded KRAS G12V, 3 h incubation after adding GppNHp-SOS1; for certain compounds the most potent isomer is quoted; read-out: KRAS_G12V exchange assay IC50
# Outline: (§1)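 Bodipy-GDP-loaded KRAS G12D or G12V (2.5 nM) pre-incubated 4 h at r.t. with inhibitor in Hepes pH 7.5, 10 mM MgCl2, then exchange started with 500 μM GppNHp and 150 nM SOS1 (final); 2 h (G12D) or 3 h (G12V). Fluorescence at 485/520 nm; IC50 from four-parameter logistic fit.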
# KRAS G12D = KRAS G12D (Homo sapiens, UniProt P01116, G12D); experiment: GDP-GTP exchange assay (bodipy-GDP/GppNHp, SOS1), KRAS G12D; format: biochemical; conditions: 2.5 nM bodipy-loaded KRAS G12D, 4 h pre-incubation, 2 h reaction with GppNHp and SOS1; for certain compounds the most potent isomer is quoted; read-out: KRAS_G12D exchange assay IC50
# Outline: as §1
# KRAS G12V, sequence (P01116 1-188 isoform P01116-2 G12V): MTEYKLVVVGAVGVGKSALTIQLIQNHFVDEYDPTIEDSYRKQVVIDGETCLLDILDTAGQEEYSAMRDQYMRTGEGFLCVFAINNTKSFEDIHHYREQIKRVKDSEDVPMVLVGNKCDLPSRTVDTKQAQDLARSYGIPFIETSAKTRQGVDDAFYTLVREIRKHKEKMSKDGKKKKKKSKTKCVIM
# KRAS G12D, sequence (P01116 1-188 isoform P01116-2 G12D): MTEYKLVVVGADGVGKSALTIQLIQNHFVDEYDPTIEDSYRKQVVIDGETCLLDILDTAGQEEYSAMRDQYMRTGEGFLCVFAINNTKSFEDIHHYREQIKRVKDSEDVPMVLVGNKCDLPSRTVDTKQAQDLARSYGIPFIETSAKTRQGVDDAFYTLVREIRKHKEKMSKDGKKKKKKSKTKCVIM
IC50 (KRAS G12V) [nM],IC50 (KRAS G12D) [nM],SMILES
≤ 100,≤ 100,"Cc1nc2c(F)c(-c3cccc(Cl)c3Cl)c(CCC#N)cc2c2c1cc([C@H]1[C@H]3C[C@H](C[C@@H]3OC3CC3)N1C(=O)C1CC1)n2[C@H]1[C@H]2CN[C@@H]1C2 [Example 36, 3-(1-((1R,4R,5S)-2-Azabicyclo[2.1.1]hexan-5-yl)-2-((1R,3R,4R,5S)-2-(cyclopropanecarbonyl)-5-cyclopropoxy-2-azabicyclo[2.2.1]heptan-3-yl)-7-(2,3-dichlorophenyl)-6-fluoro-4-methyl-1H-pyrrolo[3,2-c]quinolin-8-yl)propanenitrile]"
≤ 100,≤ 100,"Cc1nc2c(F)c(-c3cccc(Cl)c3Cl)c(CCC#N)cc2c2c1cc([C@H]1[C@H]3C[C@H](C[C@@H]3OC(F)(F)F)N1C(=O)C1CC1)n2[C@H]1[C@H]2CN[C@@H]1C2 (atropisomer, axis not shown; (Ra)) [Example 41, 3-((Ra)-1-((1R,4R,5S)-2-Azabicyclo[2.1.1]hexan-5-yl)-2-((1R,3R,4R,5S)-2-(cyclopropanecarbonyl)-5-(trifluoromethoxy)-2-azabicyclo[2.2.1]heptan-3-yl)-7-(2,3-dichlorophenyl)-6-fluoro-4-methyl-1H-pyrrolo[3,2-c]quinolin-8-yl)propanenitrile]"
≤ 100,≤ 100,"Cc1nc2c(F)c(-c3cccc(Cl)c3Cl)c(CCC#N)cc2c2c1cc([C@H]1[C@H]3C[C@H](C[C@H]3C)N1C(=O)C1CC1)n2C1[C@H]2CN[C@@H]1C2 (stereo partly drawn) [Example 18, 3-(1-((1R,4R)-2-azabicyclo[2.1.1]hexan-5-yl)-2-((1S,3R,4S,5R)-2-(cyclopropanecarbonyl)-5-methyl-2-azabicyclo[2.2.1]heptan-3-yl)-7-(2,3-dichlorophenyl)-6-fluoro-4-methyl-1H-pyrrolo[3,2-c]quinolin-8-yl)propanenitrile]"
≤ 100,≤ 100,"Cc1nc2c(F)c(-c3cccc(Cl)c3Cl)c(CCC#N)cc2c2c1cc([C@H]1[C@H]3C[C@H]([C@@H]4C[C@@H]43)N1C(=O)C1CC1)n2[C@H]1[C@H]2CN[C@@H]1C2 (atropisomer, axis not shown; (Ra)) [Example 3, 3-((Ra)-1-((1R,4R,5S)-2-Azabicyclo[2.1.1]hexan-5-yl)-2-((1S,2S,4R,5R,7R)-6-(cyclopropanecarbonyl)-6-azatricyclo[3.2.1.0^2,4]octan-7-yl)-7-(2,3-dichlorophenyl)-6-fluoro-4-methyl-1H-pyrrolo[3,2-c]quinolin-8-yl)propanenitrile]"
≤ 100,≤ 100,"COC(=O)N1[C@@H]2C[C@@H]([C@@H](OC(F)(F)F)C2)[C@@H]1c1cc2c(C)nc3c(F)c(-c4cccc(Cl)c4Cl)c(CCC#N)cc3c2n1[C@H]1[C@H]2CN[C@@H]1C2 (atropisomer, axis not shown; (Ra)) [Example 40, Methyl (1R,3R,4R,5S)-3-((Ra)-1-((1R,4R,5S)-2-azabicyclo[2.1.1]hexan-5-yl)-8-(2-cyanoethyl)-7-(2,3-dichlorophenyl)-6-fluoro-4-methyl-1H-pyrrolo[3,2-c]quinolin-2-yl)-5-(trifluoromethoxy)-2-azabicyclo[2.2.1]heptane-2-carboxylate]"
≤ 100,≤ 100,"[2H]C([2H])([2H])O[C@H]1C[C@H]2C[C@@H]1[C@H](c1cc3c(C)nc4c(F)c(-c5cccc(Cl)c5Cl)c(CCC#N)cc4c3n1[C@H]1[C@H]3CN[C@@H]1C3)N2C(=O)C1CC1 (atropisomer, axis not shown; (Ra)) [Example 4, 3-((Ra)-1-((1R,4R,5S)-2-Azabicyclo[2.1.1]hexan-5-yl)-2-((1R,3R,4R,5S)-2-(cyclopropanecarbonyl)-5-(methoxy-d3)-2-azabicyclo[2.2.1]heptan-3-yl)-7-(2,3-dichlorophenyl)-6-fluoro-4-methyl-1H-pyrrolo[3,2-c]quinolin-8-yl)propanenitrile]"
100 to 1000,100 to 1000,"CO[C@@H]1C[C@H]2C[C@@H]1[C@H](c1cc3c(C)nc4c(F)c(-c5cccc(Cl)c5Cl)c(CCC#N)cc4c3n1C1[C@H]3CN[C@@H]1C3)N2C(=O)C1CC1 (stereo partly drawn) [Example 22, 3-(1-((1R,4R)-2-azabicyclo[2.1.1]hexan-5-yl)-2-((1R,3R,4R,5R)-2-(cyclopropanecarbonyl)-5-methoxy-2-azabicyclo[2.2.1]heptan-3-yl)-7-(2,3-dichlorophenyl)-6-fluoro-4-methyl-1H-pyrrolo[3,2-c]quinolin-8-yl)propanenitrile]"
